Tests used:
Test in all cases: NCI-60 single-dose screen
Type in all cases: cell-based
HT-29 = details: Homo sapiens; HT-29, 10^–5 M; read-out: GI (%)
Text: (§1) In the next step, all synthesized compounds were electronically submitted and accepted for testing to the National Cancer Institute (NCI) platform, for the single dose (10^−5 M) screening against a panel of 60 human tumor cell lines, representing leukemia, melanoma, and cancers of the lung, colon, central nervous system, ovary, kidney, prostate, and breast. The results are summarized in Table 2, with the best values highlighted in red (Figures S1–S14).

MDA-MB-435 = details: Homo sapiens; MDA-MB-435, 10^–5 M; read-out: GI (%)
Text: as §1

CAKI-1 = details: Homo sapiens; CAKI-1, 10^–5 M; read-out: GI (%)
Text: as §1

PC-3 = details: Homo sapiens, PC-3, PC-3, 10^–5 M; read-out: GI (%)
Text: as §1

SF-539 = details: Homo sapiens; SF-539, 10^–5 M; read-out: GI (%)
Text: as §1

M14 = details: Homo sapiens; M14, 10^–5 M; read-out: GI (%)
Text: as §1

RPMI-8226 = details: Homo sapiens; RPMI-8226, 10^–5 M; read-out: GI (%)
Text: as §1

OVCAR-5 = details: Homo sapiens; OVCAR-5, 10^–5 M; read-out: GI (%)
Text: as §1

HCT-15 = details: Homo sapiens; HCT-15, 10^–5 M; read-out: GI (%)
Text: as §1

MDA-MB-231/ATCC = details: Homo sapiens, 10^–5 M, read-out: GI (%)
Text: as §1

OVCAR-3 = details: Homo sapiens; OVCAR-3, 10^–5 M; read-out: GI (%)
Text: as §1

HCT-116 = details: Homo sapiens; HCT-116, 10^–5 M; read-out: GI (%)
Text: as §1

CCRF-CEM = details: Homo sapiens, 10^–5 M, read-out: GI (%)
Text: as §1

MCF7 = details: Homo sapiens; MCF7, 10^–5 M; read-out: GI (%)
Text: as §1

LOX IMVI = details: Homo sapiens, 10^–5 M, read-out: GI (%)
Text: as §1

COLO205 = details: Homo sapiens, COLO 205; COLO205, 10^–5 M; read-out: GI (%)
Text: as §1

DU-145 = details: Homo sapiens; DU-145, 10^–5 M; read-out: GI (%)
Text: as §1

NCI-H522 = details: Homo sapiens; NCI-H522, 10^–5 M; read-out: GI (%)
Text: as §1

HS 578T = details: Homo sapiens, 10^–5 M, read-out: GI (%)
Text: as §1

A498 = details: Homo sapiens; A498, 10^–5 M; read-out: GI (%)
Text: as §1

NCI/ADR-RES = details: Homo sapiens, 10^–5 M, read-out: GI (%)
Text: as §1

MALME-3M = details: Homo sapiens, 10^–5 M, read-out: GI (%)
Text: as §1

NCI-H23 = details: Homo sapiens; NCI-H23, 10^–5 M; read-out: GI (%)
Text: as §1

SK-MEL-5 = details: Homo sapiens; SK-MEL-5, 10^–5 M; read-out: GI (%)
Text: as §1

786-0 = details: Homo sapiens; 786-0, 10^–5 M; read-out: GI (%)
Text: as §1

MOLT-4 = details: Homo sapiens; MOLT-4, 10^–5 M; read-out: GI (%)
Text: as §1

ACHN = details: Homo sapiens, 10^–5 M, read-out: GI (%)
Text: as §1

OVCAR-4 = details: Homo sapiens; OVCAR-4, 10^–5 M; read-out: GI (%)
Text: as §1

A549/ATCC = details: Homo sapiens, 10^–5 M, read-out: GI (%)
Text: as §1

UACC-257 = details: Homo sapiens; UACC-257, 10^–5 M; read-out: GI (%)
Text: as §1

SN12C = details: Homo sapiens, 10^–5 M, read-out: GI (%)
Text: as §1

SK-MEL-28 = details: Homo sapiens; SK-MEL-28, 10^–5 M; read-out: GI (%)
Text: as §1

SK-MEL-2 = details: Homo sapiens; SK-MEL-2, 10^–5 M; read-out: GI (%)
Text: as §1

SF-268 = details: Homo sapiens; SF-268, 10^–5 M; read-out: GI (%)
Text: as §1

SNB-75 = details: Homo sapiens; SNB-75, 10^–5 M; read-out: GI (%)
Text: as §1

SNB-19 = details: Homo sapiens; SNB-19, 10^–5 M; read-out: GI (%)
Text: as §1

KM12 = details: Homo sapiens; KM12, 10^–5 M; read-out: GI (%)
Text: as §1

SK-OV-3 = details: Homo sapiens; SK-OV-3, 10^–5 M; read-out: GI (%)
Text: as §1

| Structure (SMILES) | inhibition at 10 µM (HT-29) [%] | inhibition at 10 µM (MDA-MB-435) [%] | inhibition at 10 µM (CAKI-1) [%] | inhibition at 10 µM (PC-3) [%] | inhibition at 10 µM (SF-539) [%] | inhibition at 10 µM (M14) [%] | inhibition at 10 µM (RPMI-8226) [%] | inhibition at 10 µM (OVCAR-5) [%] | inhibition at 10 µM (HCT-15) [%] | inhibition at 10 µM (MDA-MB-231/ATCC) [%] | inhibition at 10 µM (OVCAR-3) [%] | inhibition at 10 µM (HCT-116) [%] | inhibition at 10 µM (CCRF-CEM) [%] | inhibition at 10 µM (MCF7) [%] | inhibition at 10 µM (LOX IMVI) [%] | inhibition at 10 µM (COLO205) [%] | inhibition at 10 µM (DU-145) [%] | inhibition at 10 µM (NCI-H522) [%] | inhibition at 10 µM (HS 578T) [%] | inhibition at 10 µM (A498) [%] | also measured |
| --- | --- | --- | --- | --- | --- | --- | --- | --- | --- | --- | --- | --- | --- | --- | --- | --- | --- | --- | --- | --- | --- |
| O=C1C(Nc2ccc(I)cc2)=CC(c2ccc3c(c2)OCO3)N1c1ccc(I)cc1 (stereo not shown) [3n] | 5 | 0 | 16 | 1 | 87 | 5 | 20 | 0 | 9 | 0 | 10 | 9 | 3 | 30 | 10 | 5 | 0 | 26 | 25 | 16 | inhibition at 10 µM (NCI/ADR-RES): 0%; inhibition at 10 µM (MALME-3M): 0%; inhibition at 10 µM (NCI-H23): 18%; inhibition at 10 µM (SK-MEL-5): 1%; inhibition at 10 µM (786-0): 9%; inhibition at 10 µM (MOLT-4): 20%; inhibition at 10 µM (ACHN): 0%; inhibition at 10 µM (OVCAR-4): 14%; inhibition at 10 µM (A549/ATCC): 15%; inhibition at 10 µM (UACC-257): 0%; inhibition at 10 µM (SN12C): 16%; inhibition at 10 µM (SK-MEL-28): 3%; inhibition at 10 µM (SK-MEL-2): 56%; inhibition at 10 µM (SF-268): 25%; inhibition at 10 µM (SNB-75): 20%; inhibition at 10 µM (SNB-19): 5%; inhibition at 10 µM (KM12): 19%; inhibition at 10 µM (SK-OV-3): 13% |
| O=C1C(Nc2ccc(I)cc2)=CC(c2cc(C(F)(F)F)cc(C(F)(F)F)c2)N1c1ccc(I)cc1 (stereo not shown) [3f] | 5 | 0 | 32 | 25 | 17 | 0 | 43 | 9 | 17 | 42 | 35 | 43 | 100 | 46 | 17 | 59 | 5 | 34 | 100 | 90 | inhibition at 10 µM (NCI/ADR-RES): 7%; inhibition at 10 µM (MALME-3M): 0%; inhibition at 10 µM (NCI-H23): 12%; inhibition at 10 µM (SK-MEL-5): 12%; inhibition at 10 µM (786-0): 29%; inhibition at 10 µM (MOLT-4): 89%; inhibition at 10 µM (ACHN): 49%; inhibition at 10 µM (OVCAR-4): 69%; inhibition at 10 µM (A549/ATCC): 16%; inhibition at 10 µM (UACC-257): 0%; inhibition at 10 µM (SN12C): 61%; inhibition at 10 µM (SK-MEL-28): 9%; inhibition at 10 µM (SK-MEL-2): 35%; inhibition at 10 µM (SF-268): 21%; inhibition at 10 µM (SNB-75): 100%; inhibition at 10 µM (SNB-19): 19%; inhibition at 10 µM (KM12): 13%; inhibition at 10 µM (SK-OV-3): 10% |
| O=C1C(Nc2ccc(I)cc2)=CC(c2ccc(C(F)(F)F)cc2)N1c1ccc(I)cc1 (stereo not shown) [3e] | 32 | 0 | 91 | 26 | 37 | 64 | 60 | 18 | 12 | 62 | 72 | 58 | 100 | 44 | 7 | 61 | 28 | 53 | 100 | 100 | inhibition at 10 µM (NCI/ADR-RES): 35%; inhibition at 10 µM (MALME-3M): 78%; inhibition at 10 µM (NCI-H23): 11%; inhibition at 10 µM (SK-MEL-5): 0%; inhibition at 10 µM (786-0): 76%; inhibition at 10 µM (MOLT-4): 75%; inhibition at 10 µM (ACHN): 100%; inhibition at 10 µM (OVCAR-4): 100%; inhibition at 10 µM (A549/ATCC): 30%; inhibition at 10 µM (UACC-257): 100%; inhibition at 10 µM (SN12C): 60%; inhibition at 10 µM (SK-MEL-28): 31%; inhibition at 10 µM (SK-MEL-2): 100%; inhibition at 10 µM (SF-268): 100%; inhibition at 10 µM (SNB-75): 100%; inhibition at 10 µM (SNB-19): 71%; inhibition at 10 µM (KM12): 35%; inhibition at 10 µM (SK-OV-3): 50% |
| O=C1C(Nc2ccc(I)cc2)=CC(c2ccco2)N1c1ccc(I)cc1 (stereo not shown) [3m] | 6 | 84 | 53 | 28 | 63 | 4 | 93 | 0 | 16 | 11 | 8 | 20 | 59 | 93 | 63 | 8 | 0 | 31 | 39 | 12 | inhibition at 10 µM (NCI/ADR-RES): 15%; inhibition at 10 µM (MALME-3M): 34%; inhibition at 10 µM (NCI-H23): 19%; inhibition at 10 µM (SK-MEL-5): 17%; inhibition at 10 µM (786-0): 36%; inhibition at 10 µM (MOLT-4): 70%; inhibition at 10 µM (ACHN): 9%; inhibition at 10 µM (OVCAR-4): 0%; inhibition at 10 µM (A549/ATCC): 16%; inhibition at 10 µM (UACC-257): 32%; inhibition at 10 µM (SN12C): 27%; inhibition at 10 µM (SK-MEL-28): 20%; inhibition at 10 µM (SK-MEL-2): 100%; inhibition at 10 µM (SF-268): 79%; inhibition at 10 µM (SNB-75): 9%; inhibition at 10 µM (SNB-19): 8%; inhibition at 10 µM (KM12): 48%; inhibition at 10 µM (SK-OV-3): 67% |
| O=C1C(Nc2ccc(I)cc2)=CC(c2ccccc2)N1c1ccc(I)cc1 (stereo not shown) [3a] | 0 | 0 | 3 | 0 | 12 | 0 | 100 | 0 | 19 | 0 | 1 | 14 | 4 | 44 | 18 | 0 | 0 | 50 | 71 | 16 | inhibition at 10 µM (NCI/ADR-RES): 0%; inhibition at 10 µM (MALME-3M): 0%; inhibition at 10 µM (NCI-H23): 6%; inhibition at 10 µM (SK-MEL-5): 1%; inhibition at 10 µM (786-0): 17%; inhibition at 10 µM (MOLT-4): 2%; inhibition at 10 µM (ACHN): 13%; inhibition at 10 µM (OVCAR-4): 20%; inhibition at 10 µM (A549/ATCC): 5%; inhibition at 10 µM (UACC-257): 13%; inhibition at 10 µM (SN12C): 23%; inhibition at 10 µM (SK-MEL-28): 2%; inhibition at 10 µM (SK-MEL-2): 26%; inhibition at 10 µM (SF-268): 16%; inhibition at 10 µM (SNB-75): 15%; inhibition at 10 µM (SNB-19): 8%; inhibition at 10 µM (KM12): 8%; inhibition at 10 µM (SK-OV-3): 8% |

Source: PMC12736255, “Reinvestigating Pyrrol-2-One-Based Compounds: From Antimicrobial Agents to Promising Antitumor Candidates” (Pharmaceuticals, 2025)
